The experiment deals with T1, Human complement C1s enzyme (Homo sapiens, UniProt P09871).
T1 construct: purified from human serum, Complement Technology, Inc; purchased Complement Technology, Inc; host or cells: human serum
T1 sequence (P09871 438-688 limits assumed): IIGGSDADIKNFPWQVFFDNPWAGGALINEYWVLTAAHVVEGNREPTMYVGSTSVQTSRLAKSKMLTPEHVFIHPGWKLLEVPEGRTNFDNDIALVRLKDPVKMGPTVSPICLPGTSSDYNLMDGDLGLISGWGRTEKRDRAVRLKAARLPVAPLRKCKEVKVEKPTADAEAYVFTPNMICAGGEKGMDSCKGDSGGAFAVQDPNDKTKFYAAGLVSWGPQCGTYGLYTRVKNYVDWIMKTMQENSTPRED
T1 sequence (P09871 16-437 partner limits assumed): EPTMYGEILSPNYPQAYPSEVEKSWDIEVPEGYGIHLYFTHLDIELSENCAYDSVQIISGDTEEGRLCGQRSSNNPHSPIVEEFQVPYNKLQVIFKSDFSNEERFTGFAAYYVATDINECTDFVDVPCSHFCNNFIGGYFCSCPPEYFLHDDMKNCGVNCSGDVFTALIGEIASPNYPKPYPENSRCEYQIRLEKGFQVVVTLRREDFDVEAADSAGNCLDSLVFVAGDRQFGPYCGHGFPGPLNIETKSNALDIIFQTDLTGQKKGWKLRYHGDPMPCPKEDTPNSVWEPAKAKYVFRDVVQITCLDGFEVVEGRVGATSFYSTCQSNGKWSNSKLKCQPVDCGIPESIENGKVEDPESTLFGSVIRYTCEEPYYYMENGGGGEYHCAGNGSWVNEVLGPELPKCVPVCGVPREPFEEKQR
In words: Human C1s Enzyme Assay. Type of experiment: biochemical. In outline:
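IC50 values were fitted by nonlinear regression to rates measured as A405 every 30 s for 30 min. The thioester substrate Z-L-Lys-SBzl and Ellman's reagent were each at 100 μM. Serum-derived C1s at 1.16 nM final had 5 min of room-temperature preincubation with compound (pH 7.5 Tris buffer, 1 M NaCl).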

The mark [1] stands for this setting: human C1s 1.16 nM, 5 min preincubation, substrate Z-L-Lys-SBzl 100 μM, A405; read-out: C1s Protease Activity.

SMILES strings stand for the structures. Counter-ions that a name gives are not always drawn. Like-named read-outs stand apart in the source and are kept apart here.

Take `COC[C@H]1C[C@@H](C(=O)NCc2cc(C(=N)N)cs2)N(C(=O)CNC(=O)c2ccc(Oc3ccccc3)cc2)C1` [Compound 14, (2S,4S)-N-((4-carbamimidoylthiophen-2-yl)methyl)-4-(methoxymethyl)-1-((4-phenoxybenzoyl)glycyl)pyrrolidine-2-carboxamide hydrochloride]: under setting [1], the IC50 was under 0.1 µM.

`C[C@@H](NC(=O)[C@@H]1CC2(CN1C(=O)CNC(=O)c1ccc(C(=O)c3ccccc3)cc1)OCCO2)c1cc(C(=N)N)cs1` [Compound 219, (S)-7-((4-benzoylbenzoyl)glycyl)-N-((R)-1-(4-carbamimidoylthiophen-2-yl)ethyl)-1,4-dioxa-7-azaspiro[4.4]nonane-8-carboxamide]: the IC50 under setting [1] was under 0.1 µM.

Turning to `N=C(N)c1csc([C@@H](CO)NC(=O)[C@@H]2C[C@@H](OC(F)F)CN2C(=O)CNC(=O)c2ccc(Oc3ccccc3)cc2)c1` [Compound 197, (2S,4R)-N-((R)-1-(4-carbamimidoylthiophen-2-yl)-2-hydroxyethyl)-4-(difluoromethoxy)-1-((4-phenoxybenzoyl)glycyl)pyrrolidine-2-carboxamide], the IC50 under setting [1] is under 0.1 µM.

Take `CCCC(COc1ccccc1)CC(=O)NCC(=O)N1CC2(C[C@H]1C(=O)NCc1cc(C(=N)N)cs1)OCCO2` (stereo partly drawn) [Compound 90, (8S)-N-((4-carbamimidoylthiophen-2-yl)methyl)-7-((3-(phenoxymethyl)hexanoyl)glycyl)-1,4-dioxa-7-azaspiro[4.4]nonane-8-carboxamide]: the IC50 under setting [1] is under 0.1 µM.

For the compound `N=C(N)c1csc(CNC(=O)C23CCC(CC2)N3C(=O)CNC(=O)CCCOc2ccccc2)c1` [Compound 30, N-((4-carbamimidoylthiophen-2-yl)methyl)-7-((4-phenoxybutanoyl)glycyl)-7-azabicyclo[2.2.1]heptane-1-carboxamide], the IC50 (read-out: C1s Protease Activity; human C1s 1.16 nM, 5 min preincubation, substrate Z-L-Lys-SBzl 100 μM, A405) was under 0.1 µM.

As for `C[C@@]12C[C@@H]1N(C(=O)CNC(=O)c1ccc(Oc3cccnc3)cc1)[C@H](C(=O)NCc1cc(C(=N)N)cs1)C2` [Compound 94, (1S,3S,5S)-N-[(4-carbamimidoylthiophen-2-yl)methyl]-5-methyl-2-(2-{[4-(pyridin-3-yloxy)phenyl]formamido}acetyl)-2-azabicyclo[3.1.0]hexane-3-carboxamide], the IC50 under setting [1] was under 0.1 µM.

For `C[C@@]12C[C@@H]1N(C(=O)CNC(=O)c1ccc(Oc3ccccc3)cc1)[C@H](C(=O)N(O)Cc1cc(C(=N)N)cs1)C2` [Compound 127, (1S,3S,5S)-N-((4-carbamimidoylthiophen-2-yl)methyl)-N-hydroxy-5-methyl-2-((4-phenoxybenzoyl)glycyl)-2-azabicyclo[3.1.0]hexane-3-carboxamide], the IC50 under setting [1] is over 1 µM.

For `CC(C)C[C@H](NC(=O)[C@@H]1CC2(CN1C(=O)CNC(=O)CCCOc1ccccc1)OCCO2)c1cc(C(=N)N)cs1` [Compound 221, (S)-N-((S)-1-(4-carbamimidoylthiophen-2-yl)-3-methylbutyl)-7-((4-phenoxybutanoyl)glycyl)-1,4-dioxa-7-azaspiro[4.4]nonane-8-carboxamide], the IC50 under setting [1] was over 1 µM.

`N=C(N)c1csc(CNC(=O)[C@@H]2CC3(CN2C(=O)CNC(=O)CCCOc2ccc(C4CC4)cc2)OCCO3)c1` [Compound 208, (S)-N-((4-carbamimidoylthiophen-2-yl)methyl)-7-((4-(4-cyclopropylphenoxy)butanoyl)glycyl)-1,4-dioxa-7-azaspiro[4.4]nonane-8-carboxamide]: under setting [1], the IC50 was under 0.1 µM.

In the case of `N=C(N)c1csc(CNC(=O)[C@@H]2CC(OC(F)(F)F)CN2C(=O)CNC(=O)c2ccc(Oc3ccccc3)cc2)c1` (stereo in doubt) [Compound 247, (2S,4S)-N-((4-carbamimidoylthiophen-2-yl)methyl)-1-((4-phenoxybenzoyl)glycyl)-4-(trifluoromethoxy)pyrrolidine-2-carboxamide], the IC50 under setting [1] was under 0.1 µM.

In the case of `N=C(N)c1csc(CNC(=O)[C@@H]2CC3(CN2C(=O)CNC(=O)CCCOc2ccccc2)OCCO3)c1` [Compound 28, (S)-N-((4-carbamimidoylthiophen-2-yl)methyl)-7-((4-phenoxybutanoyl)glycyl)-1,4-dioxa-7-azaspiro[4.4]nonane-8-carboxamide], under setting [1], the IC50 was under 0.1 µM.

Take `C[C@@]12C[C@@H]1N(C(=O)CNC(=O)c1ccc(Oc3ccccc3)cc1)[C@H](C(=O)NCc1cc(C(=N)N)c(C(F)(F)F)s1)C2` [Compound 248, (1S,3S,5S)-N-((4-carbamimidoyl-5-(trifluoromethyl)thiophen-2-yl)methyl)-5-methyl-2-((4-phenoxybenzoyl)glycyl)-2-azabicyclo[3.1.0]hexane-3-carboxamide]: the IC50 under setting [1] was over 1 µM.

On to `CC(C)C[C@@H](NC(=O)[C@@H]1CC2(CN1C(=O)CNC(=O)CCCOc1ccccc1)OCCO2)c1cc(C(=N)N)cs1` [Compound 173, (S)-N-((R)-1-(4-carbamimidoylthiophen-2-yl)-3-methylbutyl)-7-((4-phenoxybutanoyl)glycyl)-1,4-dioxa-7-azaspiro[4.4]nonane-8-carboxamide], for which the IC50 under setting [1] was over 1 µM.

Consider `C[C@@H](NC(=O)[C@@H]1C[C@H](C2CCCCC2)CN1C(=O)CNC(=O)c1ccc(Oc2ccccc2)cc1)c1cc(C(=N)N)cs1` [Compound 241, (2S,4R)-N-((R)-1-(4-carbamimidoylthiophen-2-yl)ethyl)-4-cyclohexyl-1-((4-phenoxybenzoyl)glycyl)pyrrolidine-2-carboxamide], for which, under setting [1], the IC50 is under 0.1 µM.

As for `N=C(N)c1csc(CNC(=O)[C@@H]2C[C@@H](C(F)(F)F)CN2C(=O)CNC(=O)CCCOc2ccccc2)c1` [Compound 60, (2S,4R)-N-((4-carbamimidoylthiophen-2-yl)methyl)-1-((4-phenoxybutanoyl)glycyl)-4-(trifluoromethyl)pyrrolidine-2-carboxamide], under setting [1], the IC50 is under 0.1 µM.

Turning to `C[C@@H](NC(=O)[C@@H]1CC2(CN1C(=O)CNC(=O)c1ccc(C(F)(F)F)cc1)OCCO2)c1cc(C(=N)N)cs1` [Compound 263, (S)-N-((R)-1-(4-carbamimidoylthiophen-2-yl)ethyl)-7-((4-(trifluoromethyl)benzoyl)glycyl)-1,4-dioxa-7-azaspiro[4.4]nonane-8-carboxamide], under setting [1], the IC50 was under 0.1 µM.

Regarding `N=C(N)c1csc(CNC(=O)[C@@H]2C[C@]3(CO)C[C@@H]3N2C(=O)CNC(=O)c2ccc(Oc3ccccc3)cc2)c1` [Compound 9, (1S,3S,5R)-N-((4-carbamimidoylthiophen-2-yl)methyl)-5-(hydroxymethyl)-2-((4-phenoxybenzoyl)glycyl)-2-azabicyclo[3.1.0]hexane-3-carboxamide], the IC50 under setting [1] is under 0.1 µM.

On to `COC[C@@]12C[C@@H]1N(C(=O)CNC(=O)c1ccc(Oc3ccccc3)cc1)[C@H](C(=O)NCc1cc(C(=N)N)cs1)C2` [Compound 20, (1S,3S,5R)-N-((4-carbamimidoylthiophen-2-yl)methyl)-5-(methoxymethyl)-2-((4-phenoxybenzoyl)glycyl)-2-azabicyclo[3.1.0]hexane-3-carboxamide], for which, under setting [1], the IC50 is under 0.1 µM.

`N=C(N)c1csc(CNC(=O)[C@@H]2C=CCN2C(=O)CNC(=O)CCCOc2ccc(S(F)(F)(F)(F)F)cc2)c1` [Compound 95]: under setting [1], the IC50 was 0.1 to 1 µM.

Turning to `CC(=O)ONC(=N)c1csc(CNC(=O)[C@@H]2C[C@]3(C)C[C@@H]3N2C(=O)CNC(=O)c2ccc(Oc3ccccc3)cc2)c1` [Compound 39, (1S,3S,5S)-N-((4-(N-acetoxycarbamimidoyl)thiophen-2-yl)methyl)-5-methyl-2-((4-phenoxybenzoyl)glycyl)-2-azabicyclo[3.1.0]hexane-3-carboxamide], the IC50 under setting [1] lay within 0.1 to 1 µM.

In the case of `CN/C(=N/C#N)c1csc(CNC(=O)[C@@H]2C[C@]3(C)C[C@@H]3N2C(=O)CNC(=O)c2ccc(Oc3ccccc3)cc2)c1` [Compound 236, (1S,3S,5S)-N-((4-((E)-N′-cyano-N-methylcarbamimidoyl)thiophen-2-yl)methyl)-5-methyl-2-((4-phenoxybenzoyl)glycyl)-2-azabicyclo[3.1.0]hexane-3-carboxamide], the IC50 under setting [1] is over 1 µM.

Consider `C[C@@]12C[C@@H]1N(C(=O)CNC(=O)CCCOc1ccccc1)[C@H](C(=O)NCc1cc(C(=N)N)cs1)C2` [Compound 44, (1S,3S,5S)-N-((4-carbamimidoylthiophen-2-yl)methyl)-5-methyl-2-((4-phenoxy-butanoyl)glycyl)-2-azabicyclo[3.1.0]hexane-3-carboxamide], for which, under setting [1], the IC50 is under 0.1 µM.

As for `C[C@@H](NC(=O)[C@@H]1C[C@@H](S(C)(=O)=O)CN1C(=O)CNC(=O)CCCOc1ccccc1)c1cc(C(=N)N)cs1` [Compound 125, (2S,4R)-N-((R)-1-(4-carbamimidoylthiophen-2-yl)ethyl)-4-(methylsulfonyl)-1-((4-phenoxybutanoyl)glycyl)pyrrolidine-2-carboxamide], the IC50 under setting [1] was under 0.1 µM.

(Values after patent US20250171423A1, “PHARMACEUTICAL COMPOUNDS FOR THE TREATMENT OF COMPLEMENT MEDIATED DISORDERS” (Achillion Pharmaceuticals, Inc., priority 2020, published 2025).)
